This is an account of results in patent US12037343B2, “Process for the preparation of sodium (2r,5s,13ar)-7,9-dioxo-10-((2,4,6,-trifluorobenzyl)carbamoyl)-2,3,4,5,7,9,13,13A-octahydro-2,5-methanopyrido[1′,2′:4,5]pyrazino[2,1-B] [1,3] oxazepin-8-olate and its polymorphic form” (Honour Lab Limited, priority 2018, dated 2024).

The format of the data set is physicochemical. Here is the method: The stability of sample was tested by storing the samples at 40° C./75% relative humidity (RH) and 25° C./60% RH for 6 months. The stability of samples was tested by PXRD, HPLC and water content was measured by Karl Fischer method.

Read-outs that look alike come from different tables or passages of the source.

`O=C(NCc1c(F)cc(F)cc1F)c1cn2c(c(O)c1=O)C(=O)N1[C@H]3CC[C@H](C3)O[C@@H]1C2` [Form HN-1, sodium (2R,5S,13aR)-7,9-dioxo-10-((2,4,6-trifluorobenzyl)carbamoyl)-2,3,4,5,7,9,13,13a-octahydro-2,5-methanopyrido [1′,2′:4,5]pyrazino[2,1-b][1,3] oxazepin-8-olate]: the “stability (PXRD pattern, water content, purity after storage)” value was “physically and chemically stable”. Besides, for the setting “4 month, 25° C./60% RH”, the “Physical form (as assessed by PXRD)” value was “Crystalline”, the “Purity by HPLC” value worked out at 99.78% and the Water content by Karl Fischer method turned out to be 3.7%. In addition, where the note is “4 month, 40° C./75% RH”, the “Physical form (as assessed by PXRD)” value is “Crystalline”, the “Purity by HPLC” value stood at 99.78% and the Water content by Karl Fischer method was determined as 3.6%. Also, where the note is “5 month, 25° C./60% RH”, the “Physical form (as assessed by PXRD)” value is listed as “Crystalline”, the “Purity by HPLC” value is recorded as 99.78% and the Water content by Karl Fischer method was found to be 3.9%. Where the note is “5 month, 40° C./75% RH”, the “Physical form (as assessed by PXRD)” value is listed as “Crystalline”, the “Purity by HPLC” value stood at 99.77% and the Water content by Karl Fischer method stood at 3.9%. Where the note is “6 month, 25° C./60% RH”, the “Physical form (as assessed by PXRD)” value is “Crystalline”, the “Purity by HPLC” value came to 99.78% and the Water content by Karl Fischer method was 3.8%. In addition, for the setting “6 month, 40° C./75% RH”, the “Physical form (as assessed by PXRD)” value was “Crystalline”, the “Purity by HPLC” value was 99.78% and the Water content by Karl Fischer method is 3.8%. For the same molecule, for the setting “Initial”, the “Physical form (as assessed by PXRD)” value is listed as “Crystalline”, the “Purity by HPLC” value is 99.82% and the Water content by Karl Fischer method turned out to be 4.2%.
